Laboratory results: patent US20020115663A1, “Novel compounds” (priority 2000, published 2002)

Target: Human PTP1B (Homo sapiens, UniProt P18031)
Settings: 2 mM, control wells
Procedure: Human PTP1B (amino acid residues 1-298, cloned from a human placental library), without the GST tag and thrombin cleavage site, was inserted into a pMB replicon and transformed into E. coli BL21 (DE3), a strain containing a chromosomal copy of the gene for T7 RNA polymerase under control of a lacUV5 promoter. Expression of PTP1B was induced with isopropyl thiogalactose and cells were lysed in lysis buffer comprising 50 mM Tris-HCl pH 7.5, 10% glycerol, 1 mM EDTA, 3 mM DTT, 3 mM MgCl2, and 0.2 mg/ml lysozyme with 1 mg/ml DNAse I. The soluble protein was purified by ion exchange, hydrophobic interaction and gel exclusion chromatography for use in assays to identify PTP1B inhibitors. […] Recombinant proteins were stored at −70° C. until used.
Human PTP1B activity was measured using p-nitrophenol phosphate (pNPP) as substrate in a 96-well microtiter plate format. An assay pH of 7.2 is used for standard assays (measured extinction coefficient =9800 at pH 7.2).
Standard assays were conducted at room temperature in a total volume of 0.2 ml that contains Hepes buffer (50 mM, pH 7.2), NaCl (50 mM), EDTA (1 mM), DTT (1 mM), bovine serum albumin (1 mg/ml), pNPP (1.25 mM) and PTP1B (500 ng/ml, 13.5 nM). […] The OD^405 was subsequently measured. […]

Human PTP1B, sequence (P18031 1-298): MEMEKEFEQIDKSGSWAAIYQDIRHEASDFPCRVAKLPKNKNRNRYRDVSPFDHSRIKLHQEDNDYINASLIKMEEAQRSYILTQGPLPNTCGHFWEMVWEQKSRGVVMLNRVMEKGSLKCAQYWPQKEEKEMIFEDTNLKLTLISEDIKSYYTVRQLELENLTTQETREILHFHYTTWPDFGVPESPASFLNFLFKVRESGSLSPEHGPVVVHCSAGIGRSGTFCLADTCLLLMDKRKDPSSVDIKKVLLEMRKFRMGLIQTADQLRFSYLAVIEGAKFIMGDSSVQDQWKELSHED

Structure (SMILES): [Na+].[Na+].[Na+].[O]=[V]([O-])([O-])[O-] [sodium orthovanadate]
- inhibition of PTP1B-catalyzed hydrolysis of pNPP: completely
